Laboratory results from patent publication US10570129B2 (Zoetis Services LLC, priority 2015, dated 2020).

How the values were obtained:
[1] = test system: Haemonchus contortus L3; test: microbe, parasite or virus in culture; type: cell-based; details: for minimal effective concentration: Haemonchus contortus, 96 h, read-out: HcL3 Minimal Effective Concentration (MEC)
[2] = test system: D. immitis microfilariae; test: Dirofilaria immitis, microfilariae (DiMF) in vitro motility assay; type: cell-based; details: for minimal effective concentration: Dirofilaria immitis, 72 h, read-out: DiMF minimally effective dose (MEC)

N#Cc1cccc2c1c1c(n2C(=O)NCc2ccnc(Cl)c2)CCN(C/C=C/c2ccc(F)cc2Cl)C1 [Example 25, (E)-2-(3-(2-chloro-4-fluorophenyl)allyl)-N-((2-chloropyridin-4-yl)methyl)-9-cyano-1,2,3,4-tetrahydro-5H-pyrido[4,3-b]indole-5-carboxamide]
minimal effective concentration [1]: > 100 µM | minimal effective concentration [2]: 33 µM

O=C(NCc1ccnc(F)c1)n1c2c(c3ccc(Cl)cc31)CN(C/C=C/c1ccc(F)cc1F)CC2 [Example 226, (E)-7-chloro-2-(3-(2,4-difluorophenyl)allyl)-N-((2-fluoropyridin-4-yl)methyl)-1,2,3,4-tetrahydro-5H-pyrido[4,3-b]indole-5-carboxamide]
minimal effective concentration [1]: > 100 µM | minimal effective concentration [2]: 1.8 µM

O=C(NCc1ccnc(Cl)c1)n1c2c(c3cc(Br)c(Br)cc31)CN(C/C=C/c1ccc(Cl)cc1)CC2 [Example 198, (E)-7,8-dibromo-2-(3-(4-chlorophenyl)allyl)-N-((2-chloropyridin-4-yl)methyl)-1,2,3,4-tetrahydro-5H-pyrido[4,3-b]indole-5-carboxamide]
minimal effective concentration [1]: 1 µM | minimal effective concentration [2]: 5.7 µM

O=C(NCc1ccnc(Cl)c1)n1c2c(c3cc(Br)c(Cl)cc31)CN(C/C=C/c1ccc(Cl)cc1)CC2 [Example 196, (E)-8-bromo-7-chloro-2-(3-(4-chlorophenyl)allyl)-N-((2-chloropyridin-4-yl)methyl)-1,2,3,4-tetrahydro-5H-pyrido[4,3-b]indole-5-carboxamide]
minimal effective concentration [1]: 0.3 µM | minimal effective concentration [2]: 5.7 µM

N#Cc1ccc2c(c1)c1c(n2C(=O)NCc2ccnc(F)c2)CCN(C/C=C/c2cccc(F)c2F)C1 [Example 119, (E)-8-cyano-2-(3-(2,3-difluorophenyl)allyl)-N-((2-fluoropyridin-4-yl)methyl)-1,2,3,4-tetrahydro-5H-pyrido[4,3-b]indole-5-carboxamide]
minimal effective concentration [1]: 3.3 µM | minimal effective concentration [2]: 18.2 µM

O=C(NCc1cnc(Cl)s1)n1c2c(c3cc(OC(F)(F)F)ccc31)CN(C/C=C/c1ccc(Cl)cc1)CC2 [Example 409, (E)-2-(3-(4-chlorophenyl)allyl)-N-((2-chlorothiazol-5-yl)methyl)-8-(trifluoromethoxy)-1,2,3,4-tetrahydro-5H-pyrido[4,3-b]indole-5-carboxamide]
minimal effective concentration [1]: 1 µM | minimal effective concentration [2]: 10 µM

O=C(NCc1ccnc(F)c1)n1c2c(c3ccc(OC(F)(F)F)cc31)CN(C/C=C/c1cc(F)cc(F)c1)CC2 [Example 378, (E)-2-(3-(3,5-difluorophenyl)allyl)-N-((2-fluoropyridin-4-yl)methyl)-7-(trifluoromethoxy)-1,2,3,4-tetrahydro-5H-pyrido[4,3-b]indole-5-carboxamide]
minimal effective concentration [1]: 1.8 µM | minimal effective concentration [2]: 10 µM

COc1ccc(/C=C/CN2CCc3c(c4cccc(Cl)c4n3C(=O)NCc3ccnc(Cl)c3)C2)cc1 [Example 270, (E)-6-chloro-N-((2-chloropyridin-4-yl)methyl)-2-(3-(4-methoxyphenyl)allyl)-1,2,3,4-tetrahydro-5H-pyrido[4,3-b]indole-5-carboxamide]
minimal effective concentration [1]: > 100 µM | minimal effective concentration [2]: 10 µM

Cc1ccc2c(c1)c1c(n2C(=O)NCc2ccnc(Cl)c2)CCN(C/C=C/c2ccc(Cl)c(Cl)c2)C1 [Example 432, (E)-N-((2-chloropyridin-4-yl)methyl)-2-(3-(3,4-dichlorophenyl)allyl)-8-methyl-1,2,3,4-tetrahydro-5H-pyrido[4,3-b]indole-5-carboxamide]
minimal effective concentration [1]: 1 µM | minimal effective concentration [2]: 57.4 µM

O=C(NCc1ccnc(Cl)c1)n1c2c(c3cc(Cl)c(C(F)(F)F)cc31)CN(C/C=C/c1ccc(Cl)cc1)CC2 [Example 328, (E)-8-chloro-2-(3-(4-chlorophenyl)allyl)-N-((2-chloropyridin-4-yl)methyl)-7-(trifluoromethyl)-1,2,3,4-tetrahydro-5H-pyrido[4,3-b]indole-5-carboxamide]
minimal effective concentration [1]: 0.3 µM | minimal effective concentration [2]: 33 µM

NC(=O)c1ccc2c(c1)c1c(n2C(=O)NCc2ccnc(Cl)c2)CCN(C/C=C/c2ccc(Cl)c(F)c2)C1 [Example 467, (E)-2-(3-(4-chloro-3-fluorophenyl)allyl)-N^5-((2-chloropyridin-4-yl)methyl)-1,2,3,4-tetrahydro-5H-pyrido[4,3-b]indole-5,8-dicarboxamide]
minimal effective concentration [1]: > 100 µM | minimal effective concentration [2]: 1 µM

O=C(NCc1ccnc(Cl)c1)n1c2c(c3c4c(ccc31)COC4)CN(C/C=C/c1ccc(Cl)cc1)CC2 [Example 490, (E)-9-(3-(4-chlorophenyl)allyl)-N-((2-chloropyridin-4-yl)methyl)-1,3,7,8,9,10-hexahydro-6H-furo[3,4-e]pyrido[4,3-b]indole-6-carboxamide]
minimal effective concentration [1]: 0.2 µM | minimal effective concentration [2]: 10 µM

Cc1cc2c3c(n(C(=O)NCc4ccnc(Cl)c4)c2cc1C(F)(F)F)CCN(C/C=C/c1ccc(Cl)cc1)C3 [Example 330, (E)-2-(3-(4-chlorophenyl)allyl)-N-((2-chloropyridin-4-yl)methyl)-8-methyl-7-(trifluoromethyl)-1,2,3,4-tetrahydro-5H-pyrido[4,3-b]indole-5-carboxamide]
minimal effective concentration [1]: 0.5 µM | minimal effective concentration [2]: > 100 µM

N#Cc1ccc2c3c(n(C(=O)NCc4ccnc(Cl)c4)c2c1)CCN(C/C=C/c1ccc(Br)cc1F)C3 [Example 5, (E)-2-(3-(4-bromo-2-fluorophenyl)allyl)-N-((2-chloropyridin-4-yl)methyl)-7-cyano-1,2,3,4-tetrahydro-5H-pyrido[4,3-b]indole-5-carboxamide]
minimal effective concentration [1]: 1 µM | minimal effective concentration [2]: 5.7 µM

O=C(NCc1ccnc(Cl)c1)n1c2c(c3cc(Cl)c(Cl)cc31)CN(C/C=C/c1ccc(C(F)(F)F)cc1)CC2 [Example 285, (E)-7,8-dichloro-N-((2-chloropyridin-4-yl)methyl)-2-(3-(4-(trifluoromethyl)-phenyl)allyl)-1,2,3,4-tetrahydro-5H-pyrido[4,3-b]indole-5-carboxamide]
minimal effective concentration [1]: > 100 µM | minimal effective concentration [2]: 10 µM

N#Cc1ccc2c3c(n(C(=O)NCc4ccnc(C(F)(F)F)c4)c2c1)CCN(C/C=C/c1ccc(Cl)c(F)c1)C3 [Example 60, (E)-2-(3-(4-chloro-3-fluorophenyl)allyl)-7-cyano-N-((2-(trifluoromethyl)pyridin-4-yl)methyl)-1,2,3,4-tetrahydro-5H-pyrido[4,3-b]indole-5-carboxamide]
minimal effective concentration [1]: 4.4 µM | minimal effective concentration [2]: 13.5 µM

O=C(NCc1ccnc(Cl)c1)n1c2c(c3cc(Br)ccc31)CN(C/C=C/c1ccc(F)c(Cl)c1)CC2 [Example 182, (E)-8-bromo-2-(3-(3-chloro-4-fluorophenyl)allyl)-N-((2-chloropyridin-4-yl)methyl)-1,2,3,4-tetrahydro-5H-pyrido[4,3-b]indole-5-carboxamide]
minimal effective concentration [1]: 1 µM | minimal effective concentration [2]: > 100 µM

N-((2-chloropyridin-4-yl)methyl)-2-((6-fluoronaphthalen-2-yl)methyl)-7-(trifluoromethoxy)-1,2,3,4-tetrahydro-5H-pyrido[4,3-b]indole-5-carboxamide [Example 366]
HcL3 Minimal Effective Concentration (MEC) [1]: >100 µM | DiMF minimally effective dose (MEC) ([2]; decrease in microfilariae motility by subjective visual assessment, observed at 72 hours): 2.4 µM

N#Cc1ccc2c(c1)c1c(n2C(=O)NCc2ccnc(Cl)c2)CCN(C/C=C/c2ccc(F)c(Br)c2)C1 [Example 79, (E)-2-(3-(3-bromo-4-fluorophenyl)allyl)-N-((2-chloropyridin-4-yl)methyl)-8-cyano-1,2,3,4-tetrahydro-5H-pyrido[4,3-b]indole-5-carboxamide]
minimal effective concentration [1]: 0.3 µM | minimal effective concentration [2]: > 100 µM

Cc1ccc2c(c1)c1c(n2C(=O)NCc2ccnc(Cl)c2)CCN(C/C=C/c2ccc(C#N)cc2)C1 [Example 430, (E)-N-((2-chloropyridin-4-yl)methyl)-2-(3-(4-cyanophenyl)allyl)-8-methyl-1,2,3,4-tetrahydro-5H-pyrido[4,3-b]indole-5-carboxamide]
minimal effective concentration [1]: 1 µM | minimal effective concentration [2]: > 100 µM

N#Cc1ccc2c(c1)c1c(n2C(=O)NCc2ccnc(Cl)c2)CCN(C/C=C/c2ccc(Cl)c(Cl)c2)C1 [Example 93, (E)-N-((2-chloropyridin-4-yl)methyl)-8-cyano-2-(3-(3,4-dichlorophenyl)allyl)-1,2,3,4-tetrahydro-5H-pyrido[4,3-b]indole-5-carboxamide]
minimal effective concentration [1]: 0.7 µM | minimal effective concentration [2]: 2.4 µM

O=C(NCc1ccnc(F)c1)n1c2c(c3cc(OC(F)(F)F)ccc31)CN(C/C=C/c1cc(F)c(F)c(F)c1)CC2 [Example 406, (E)-N-((2-fluoropyridin-4-yl)methyl)-8-(trifluoromethoxy)-2-(3-(3,4,5-trifluorophenyl)allyl)-1,2,3,4-tetrahydro-5H-pyrido[4,3-b]indole-5-carboxamide]
minimal effective concentration [1]: 0.4 µM | minimal effective concentration [2]: 13.5 µM

N#Cc1ccc(/C=C/CN2CCc3c(c4c(OC(F)(F)F)cccc4n3C(=O)NCc3ccnc(Cl)c3)C2)cc1 [Example 352, (E)-N-((2-chloropyridin-4-yl)methyl)-2-(3-(4-cyanophenyl)allyl)-9-(trifluoromethoxy)-1,2,3,4-tetrahydro-5H-pyrido[4,3-b]indole-5-carboxamide]
minimal effective concentration [1]: 33 µM | minimal effective concentration [2]: 5.7 µM

O=C(NCc1ccnc(Cl)c1)n1c2c(c3cc(Br)ccc31)CN(C/C=C/c1ccc(OC(F)(F)F)cc1)CC2 [Example 187, (E)-8-bromo-N-((2-chloropyridin-4-yl)methyl)-2-(3-(4-(trifluoromethoxy)phenyl)allyl)-1,2,3,4-tetrahydro-5H-pyrido[4,3-b]indole-5-carboxamide]
minimal effective concentration [1]: 1.3 µM | minimal effective concentration [2]: > 100 µM

O=C(NCc1ccnc(F)c1)n1c2c(c3cc(F)c(Cl)cc31)CN(C/C=C/c1ccc(Cl)c(F)c1)CC2 [Example 309, (E)-7-chloro-2-(3-(4-chloro-3-fluorophenyl)allyl)-8-fluoro-N-((2-fluoropyridin-4-yl)methyl)-1,2,3,4-tetrahydro-5H-pyrido[4,3-b]indole-5-carboxamide]
minimal effective concentration [1]: 0.3 µM | minimal effective concentration [2]: 1.8 µM
